This note sets out measurements from ChEMBL document CHEMBL1155850, “Synthesis and biological evaluation of a focused library of beauveriolides” (Bioorg Med Chem Lett, 2008).

In one experiment the test system is Macrophage. The experiment can be described thus: Inhibition of cholesterol ester synthesis in mouse macrophages assessed as lipid droplet accumulation. Type of experiment: functional, cell-based.
The target in experiment [1] is T1, Sterol O-acyltransferase 1 (Mus musculus) (UniProt Q61263).
T1 sequence (whole entry): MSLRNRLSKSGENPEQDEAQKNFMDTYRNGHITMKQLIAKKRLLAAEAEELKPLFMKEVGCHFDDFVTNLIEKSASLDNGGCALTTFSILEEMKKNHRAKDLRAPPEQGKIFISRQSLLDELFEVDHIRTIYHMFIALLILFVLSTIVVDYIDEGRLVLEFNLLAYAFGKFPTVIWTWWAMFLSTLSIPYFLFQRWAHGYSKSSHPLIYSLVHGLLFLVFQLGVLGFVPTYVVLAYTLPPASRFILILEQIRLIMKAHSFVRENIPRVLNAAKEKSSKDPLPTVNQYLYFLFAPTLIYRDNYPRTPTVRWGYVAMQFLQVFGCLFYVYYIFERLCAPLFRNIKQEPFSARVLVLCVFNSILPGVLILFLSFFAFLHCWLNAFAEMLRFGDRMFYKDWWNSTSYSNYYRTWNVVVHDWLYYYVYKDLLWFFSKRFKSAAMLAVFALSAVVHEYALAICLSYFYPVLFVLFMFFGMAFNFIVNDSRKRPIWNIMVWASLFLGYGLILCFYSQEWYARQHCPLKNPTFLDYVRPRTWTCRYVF
The experiment can be described thus: Inhibition of ACAT in mouse liver microsomes at 20 uM. The following applies: Microsome.

Take `CCCC[C@H](C)[C@@H]1CC(=O)N[C@H](Cc2ccccc2)C(=O)N[C@@H](C)C(=O)N[C@H]([C@@H](C)CC)C(=O)O1`: the IC50 in the experiment on Macrophage is greater than 20000 nM. This compound returned an inhibition in experiment [1] of 20%.

As for `CCCC[C@H](C)[C@@H]1CC(=O)N[C@@H](Cc2ccccc2)C(=O)N[C@@H](C)C(=O)N[C@H](CC(C)C)C(=O)O1` [BEAUVERIOLIDE I], the 50% inhibitory concentration (IC50) in the experiment with Macrophage came out at 600 nM. Moreover, the inhibition in experiment [1] came to 95%.

For `CCCC[C@H](C)[C@@H]1CC(=O)N[C@@H](Cc2ccccc2)C(=O)N[C@H](C)C(=O)N[C@H](CC(C)C)C(=O)O1`, in the experiment with Macrophage, the IC50 was 480 nM. The inhibition in experiment [1] was 98%.

Regarding `CCCC[C@H](C)[C@@H]1CC(=O)N[C@@H](C(c2ccccc2)c2ccccc2)C(=O)N[C@H](C)C(=O)N[C@H](Cc2ccccc2)C(=O)O1`, in the experiment on Macrophage, the half-maximal inhibitory concentration (IC50) was determined as 240 nM. The compound also gave an inhibition in experiment [1] of 75%.

With `CCCC[C@H](C)[C@@H]1CC(=O)N[C@@H](Cc2ccccc2)C(=O)N[C@H](C)C(=O)N[C@H](Cc2ccccc2)C(=O)O1`, the 50% inhibitory concentration (IC50) with Macrophage turned out to be 10000 nM. For the same compound, the inhibition in experiment [1] was 94%.

For the compound `CCCC[C@H](C)[C@@H]1CC(=O)N[C@H](Cc2ccccc2)C(=O)N[C@H](C)C(=O)N[C@H]([C@H](C)CC)C(=O)O1`, in the experiment on Macrophage, the IC50 was 2500 nM. In experiment [1], this compound came in with an inhibition of 91%.

Regarding `CCCC[C@H](C)[C@@H]1CC(=O)N[C@@H](C(c2ccccc2)c2ccccc2)C(=O)N[C@@H](C)C(=O)N[C@H]([C@H](C)CC)C(=O)O1`, the IC50 in the experiment with Macrophage was 20 nM. In experiment [1], the inhibition was 88%.

As for `CCCC[C@H](C)[C@@H]1CC(=O)N[C@@H](C(c2ccccc2)c2ccccc2)C(=O)N[C@H](C)C(=O)N[C@H]([C@@H](C)CC)C(=O)O1`, in the experiment on Macrophage, the concentration for half-maximal inhibition (IC50) was determined as 20 nM. Besides, the inhibition in experiment [1] came to 91%.

As for `CCCC[C@H](C)[C@@H]1CC(=O)N[C@H](Cc2ccccc2)C(=O)N[C@@H](CO)C(=O)N[C@H](CC(C)C)C(=O)O1`, the IC50 in the experiment on Macrophage is greater than 20000 nM. Also, the inhibition in experiment [1] turned out to be 40%.

Take `CCCC[C@H](C)[C@@H]1CC(=O)N[C@@H](C(c2ccccc2)c2ccccc2)C(=O)N[C@@H](CC(N)=O)C(=O)N[C@H](CC(C)C)C(=O)O1`: in the experiment with Macrophage, the IC50 is 2000 nM. Further, the inhibition in experiment [1] was 98%.

As to `CCCC[C@H](C)[C@@H]1CC(=O)N[C@@H](C(c2ccccc2)c2ccccc2)C(=O)N[C@@H](CO)C(=O)N[C@H](Cc2ccccc2)C(=O)O1`, the IC50 in the experiment on Macrophage is 160 nM. Also, in experiment [1], the inhibition came to 96%.

Take `CCCC[C@H](C)[C@@H]1CC(=O)N[C@H](Cc2ccccc2)C(=O)N[C@@H](C)C(=O)N[C@H](CC(C)C)C(=O)O1`: in the experiment with Macrophage, the concentration for half-maximal inhibition (IC50) is greater than 20000 nM. In experiment [1], the inhibition amounted to 87%.

Consider `CCCC[C@H](C)[C@@H]1CC(=O)N[C@H](Cc2ccccc2)C(=O)N[C@@H](CO)C(=O)N[C@H](Cc2ccccc2)C(=O)O1`, for which, in the experiment on Macrophage, the concentration for half-maximal inhibition (IC50) came to 110 nM. Moreover, the inhibition in experiment [1] was 95%.

For `CCCC[C@H](C)[C@@H]1CC(=O)N[C@@H](C(c2ccccc2)c2ccccc2)C(=O)N[C@H](C)C(=O)N[C@H](CC(C)C)C(=O)O1`, in the experiment on Macrophage, the 50% inhibitory concentration (IC50) came to 70 nM. The compound also registered an inhibition in experiment [1] of 93%.

In the case of `CCCC[C@H](C)[C@@H]1CC(=O)N[C@@H](Cc2ccccc2)C(=O)N[C@H](C)C(=O)N[C@H]([C@@H](C)CC)C(=O)O1`, in the experiment on Macrophage, the half-inhibitory concentration (IC50) came to 800 nM. This compound came in with an inhibition in experiment [1] of 94%.

On to `CCCC[C@H](C)[C@@H]1CC(=O)N[C@@H](C(c2ccccc2)c2ccccc2)C(=O)N[C@H](C)C(=O)N[C@H]([C@H](C)CC)C(=O)O1`, for which the half-maximal inhibitory concentration (IC50) in the experiment on Macrophage was found to be 20 nM. In addition, the inhibition in experiment [1] was determined as 97%.

As for `CCCC[C@H](C)[C@@H]1CC(=O)N[C@@H](Cc2ccccc2)C(=O)N[C@@H](CO)C(=O)N[C@H](CC(C)C)C(=O)O1`, the half-maximal inhibitory concentration (IC50) in the experiment with Macrophage was determined as 12300 nM. In experiment [1], this compound yielded an inhibition of 93%.

Regarding `CCCC[C@H](C)[C@@H]1CC(=O)N[C@@H](C(c2ccccc2)c2ccccc2)C(=O)N[C@@H](CC(N)=O)C(=O)N[C@H](Cc2ccccc2)C(=O)O1`, the IC50 with Macrophage stood at 900 nM. The compound also returned an inhibition in experiment [1] of 97%.

As to `CCCC[C@H](C)[C@@H]1CC(=O)N[C@H](Cc2ccccc2)C(=O)N[C@@H](C)C(=O)N[C@H]([C@H](C)CC)C(=O)O1`, the IC50 with Macrophage is greater than 20000 nM. For the same compound, in experiment [1], the inhibition was 70%.

With `CCCC[C@H](C)[C@@H]1CC(=O)N[C@H](Cc2ccccc2)C(=O)N[C@@H](C)C(=O)N[C@H](Cc2ccccc2)C(=O)O1`, the concentration for half-maximal inhibition (IC50) in the experiment with Macrophage was greater than 20000 nM. In experiment [1], this compound gave an inhibition of 47%.

For the compound `CCCC[C@H](C)[C@@H]1CC(=O)N[C@@H](Cc2ccccc2)C(=O)N[C@@H](CC(N)=O)C(=O)N[C@H](Cc2ccccc2)C(=O)O1`, the 50% inhibitory concentration (IC50) in the experiment with Macrophage is greater than 20000 nM. For the same compound, the inhibition in experiment [1] worked out at 11%.

Take `CCCC[C@H](C)[C@@H]1CC(=O)N[C@H](Cc2ccccc2)C(=O)N[C@H](C)C(=O)N[C@H](CC(C)C)C(=O)O1`: the IC50 in the experiment on Macrophage came out at 1000 nM. The compound also showed an inhibition in experiment [1] of 96%.

As for `CCCC[C@H](C)[C@@H]1CC(=O)N[C@@H](C(c2ccccc2)c2ccccc2)C(=O)N[C@@H](C)C(=O)N[C@H](Cc2ccccc2)C(=O)O1`, in the experiment on Macrophage, the concentration for half-maximal inhibition (IC50) is 80 nM. The same compound showed an inhibition in experiment [1] of 71%.

Regarding `CCCC[C@H](C)[C@@H]1CC(=O)N[C@@H](C(c2ccccc2)c2ccccc2)C(=O)N[C@@H](C)C(=O)N[C@H](CC(C)C)C(=O)O1`, the half-inhibitory concentration (IC50) in the experiment on Macrophage was 80 nM. In experiment [1], this compound showed an inhibition of 83%.

As for `CCCC[C@H](C)[C@@H]1CC(=O)N[C@@H](C(c2ccccc2)c2ccccc2)C(=O)N[C@@H](CO)C(=O)N[C@H](CC(C)C)C(=O)O1`, in the experiment on Macrophage, the IC50 is greater than 20000 nM. For the same compound, the inhibition in experiment [1] was 70%.

For the compound `CCCC[C@H](C)[C@@H]1CC(=O)N[C@H](Cc2ccccc2)C(=O)N[C@@H](CC(N)=O)C(=O)N[C@H](C[C@@H](C)CC)C(=O)O1`, in the experiment with Macrophage, the half-inhibitory concentration (IC50) was greater than 20000 nM.

Consider `CCCC[C@H](C)[C@@H]1CC(=O)N[C@H](Cc2ccccc2)C(=O)N[C@@H](CC(N)=O)C(=O)N[C@H](Cc2ccccc2)C(=O)O1`, for which the concentration for half-maximal inhibition (IC50) with Macrophage was greater than 20000 nM. In experiment [1], this compound gave an inhibition of 8%.

In the case of `CCCC[C@H](C)[C@@H]1CC(=O)N[C@@H](C(c2ccccc2)c2ccccc2)C(=O)N[C@@H](C)C(=O)N[C@H]([C@@H](C)CC)C(=O)O1`, the IC50 with Macrophage was 40 nM. In experiment [1], this compound registered an inhibition of 95%.

For `CCCC[C@H](C)[C@@H]1CC(=O)N[C@H](Cc2ccccc2)C(=O)N[C@H](C)C(=O)N[C@H]([C@@H](C)CC)C(=O)O1`, in the experiment with Macrophage, the half-inhibitory concentration (IC50) was 900 nM. For the same compound, the inhibition in experiment [1] was found to be 99%.

With `CCCC[C@H](C)[C@@H]1CC(=O)N[C@@H](Cc2ccccc2)C(=O)N[C@@H](CC(N)=O)C(=O)N[C@H](CC(C)C)C(=O)O1`, the half-inhibitory concentration (IC50) in the experiment with Macrophage was greater than 20000 nM. The compound further registered an inhibition in experiment [1] of 43%.

As to `CCCC[C@H](C)[C@@H]1CC(=O)N[C@H](Cc2ccccc2)C(=O)N[C@@H](CC(N)=O)C(=O)N[C@H](CC(C)C)C(=O)O1`, the IC50 in the experiment with Macrophage was greater than 20000 nM. Further, the inhibition in experiment [1] is 4%.

Turning to `CCCC[C@H](C)[C@@H]1CC(=O)N[C@H](Cc2ccccc2)C(=O)N[C@H](C)C(=O)N[C@H](Cc2ccccc2)C(=O)O1`, the half-inhibitory concentration (IC50) in the experiment on Macrophage was 300 nM. Also, the inhibition in experiment [1] turned out to be 60%.

As for `CCCC[C@H](C)[C@@H]1CC(=O)N[C@@H](Cc2ccccc2)C(=O)N[C@@H](C)C(=O)N[C@H](Cc2ccccc2)C(=O)O1`, in the experiment on Macrophage, the half-inhibitory concentration (IC50) came to 7500 nM. Further, the inhibition in experiment [1] stood at 76%.

As for `CCCC[C@H](C)[C@@H]1CC(=O)N[C@@H](Cc2ccccc2)C(=O)N[C@@H](CO)C(=O)N[C@H](Cc2ccccc2)C(=O)O1`, the IC50 in the experiment with Macrophage came to 9300 nM. The same compound had an inhibition in experiment [1] of 79%.

Regarding `CCCC[C@H](C)[C@@H]1CC(=O)N[C@@H](Cc2ccccc2)C(=O)N[C@@H](C)C(=O)N[C@H]([C@@H](C)CC)C(=O)O1` [BEAUVERIOLIDE III], in the experiment with Macrophage, the IC50 came to 400 nM. Besides, the inhibition in experiment [1] is 91%.

As to `CCCC[C@H](C)[C@@H]1CC(=O)N[C@@H](Cc2ccccc2)C(=O)N[C@H](C)C(=O)N[C@H]([C@H](C)CC)C(=O)O1`, the IC50 in the experiment with Macrophage worked out at 650 nM. In addition, the inhibition in experiment [1] came to 96%.

As for `CCCC[C@H](C)[C@@H]1CC(=O)N[C@@H](Cc2ccccc2)C(=O)N[C@@H](C)C(=O)N[C@H]([C@H](C)CC)C(=O)O1`, in the experiment with Macrophage, the half-maximal inhibitory concentration (IC50) stood at 1700 nM. For the same compound, the inhibition in experiment [1] stood at 80%.
